Tested on: B. cepacia
Assay: Pigment formation (virulence suppression)
Format: cell-based, Burkholderia cepacia

O=C(O)CN1C(=O)C(=Cc2ccc(OCc3ccc(Cl)cc3)cc2)SC1=S [Compound 82]
pigment formation: repressing the pigment formation

— US20190307729A1, “ANTIMICROBIAL COMPOUNDS AND METHODS FOR USE THEREOF” (VERSITECH LIMITED, priority 2016, published 2019)
